# Data published in patent publication US10570117B2, “Phenylimidazole compound” (Otsuka Pharmaceutical Factory, Inc., priority 2015, dated 2020).
# Like-named read-outs stand apart in the source and are kept apart here.
# Experiments:
# [1] = Solubility in gastric juice or intestinal juice model fluid (precipitation method using DMSO); assay type: physicochemical; settings: room temperature
# Experimental: Solubility in Gastric Juice or Intestinal Juice Model Fluid
# Measurement was performed by a precipitation method using DMSO. Specifically, each of the dimethyl sulfoxide (DMSO) solutions of the compounds was individually added to 1st fluid for Disintegration Test of Japanese Pharmacopoeia (pH: 1.2) or 2nd fluid for Disintegration Test of Japanese Pharmacopoeia (pH: 6.8), and the mixtures were stirred by shaking at room temperature for 24 hours. Subsequently, insoluble substances in each mixture were removed by filtration, and the UV absorption of each filtrate was measured. The obtained values were individually applied to the calibration curves of the compounds prepared in advance to calculate the concentrations of the compounds dissolved (μg/mL).
# [2] = pH 1.2, simulated gastric fluid, kinetic from dmso stock, 1st fluid for Disintegration Test of Japanese Pharmacopoeia (pH: 1.2), read-out: Solubility (μg/mL) 1st fluid
# [3] = pH 6.8, kinetic from dmso stock, 2nd fluid for Disintegration Test of Japanese Pharmacopoeia (pH: 6.8), read-out: Solubility (μg/mL) 2nd fluid
# [4] = 2nd fluid for Disintegration Test of Japanese Pharmacopoeia (pH: 6.8), 24 hours
Structure (SMILES),melting point,"solubility at 24 h [1, 2] [µg/mL]","solubility at 24 h [1, 3] [µg/mL]",also measured
COc1cc(OCc2cc(C(F)(F)F)ccn2)ccc1-c1[nH]c(-c2ccc(F)nc2)nc1Cl [Example 173],185 to 187 °C,,,
COc1cc(-c2c[nH]c(C3CCC(C)CC3)n2)ccc1OCc1ccc(C(F)(F)F)cn1 (centres unmarked) [Example 64],147 to 150 °C,56.2,2.6,
COc1cc(-c2c[nH]c(C3CCCCCC3)n2)cc(OC)c1OCc1ccc(C(F)(F)F)cn1 [Example 74],177 to 179 °C,53.6,1.8,
COc1cc(-c2c[nH]c(C3CCCCC3)n2)ccc1OCc1ccc(C(F)(F)F)cn1 [Example 81],135 to 145 °C,78.7,5.8,
COc1cc(OCc2ccc(C(F)(F)F)cn2)ccc1-c1c(Cl)nc(-c2ccc(F)nc2)n1C [Example 312],142 to 144 °C,23.6,< 0.4,
COc1cc(-c2c[nH]c(C3CCC(F)(F)CC3)n2)cc(OC)c1OCc1ccc(C(F)(F)F)cn1 [Example 63],155 to 168 °C (dec.),82.2,12.5,
COc1cc(OCc2ncc(Br)cc2F)ccc1-c1[nH]c(-c2ccc(Cl)nc2)nc1Cl [Example 251],189 to 191 °C,,,
COc1cc(OCc2ccc(Br)cc2F)ccc1-c1c[nH]c(-c2ccc(Cl)nc2)n1 [Example 92],220 to 222 °C,,,
COc1cc(-c2[nH]c(-c3ccc(F)nc3)nc2Cl)ccc1OCc1ccc(C(F)(F)F)nc1 [Example 177],202 to 204 °C,,,
COc1cc(OCc2cccc(C#N)n2)ccc1-c1[nH]c(C2CCC(F)(F)CC2)nc1Cl [Example 186],,23.2,< 0.3,
COc1cc(OCc2ccc(C(F)(F)F)nc2)ccc1-c1c[nH]c(-c2ccc(Cl)nc2)n1 [Example 54],218 to 220 °C,,,
COc1cc(-c2c[nH]c(-c3ccc(C(F)(F)F)nc3)n2)ccc1OCc1ccc(Br)cc1F [Example 95],175 to 177 °C,,,
COc1cc(OCc2ccc(Br)cc2F)ccc1-c1c[nH]c(-c2ccc(C(F)(F)F)nc2)n1 [Example 99],183 to 185 °C,,,
COc1cc(OCc2cnccc2C(F)(F)F)ccc1-c1[nH]c(-c2ccc(F)nc2)nc1Cl [Example 257],133 to 153 °C,,,
COc1cc(OCc2cccc(C(F)(F)F)n2)ccc1-c1cnc(-c2ccc(F)nc2)[nH]1 [Example 113],,21.1,0.5,
COc1cc(-c2nc(-c3ccc(Cl)nc3)[nH]c2C)ccc1OCc1ccc(C(F)(F)F)nc1 [Example 28],209 to 211 °C,,,
COc1cc(OCc2ccc(C(F)(F)F)cn2)ccc1-c1nc(-c2ccc(Cl)cn2)[nH]c1Cl [Example 232],197 to 199 °C (dec.),,,
COc1cc(O[C@@H](C)c2ccc(C(F)(F)F)cc2)ccc1-c1cnc(-c2ccc(F)nc2)[nH]1 [Example 145],,< 0.3,4,
"COc1cc(-c2cnc(-c3ccc(F)nc3)[nH]2)ccc1O [Example 110, 4-[2-(6-fluoropyridin-3-yl)-1H-imidazol-5-yl]-2-methoxyphenol]",,> 57,> 57,
COc1cc(OCc2cnccn2)ccc1-c1c[nH]c(-c2ccc(Cl)nc2)n1 [Example 50],210 to 213 °C (dec.),,,

Structure (SMILES),melting point,"solubility at 24 h [1, 2] [µg/mL]","solubility at 24 h [1, 3] [µg/mL]",also measured
COc1cc(OCc2ccc(F)cc2F)ccc1-c1[nH]c(-c2ccc(Cl)nc2)nc1Cl [Example 244],173 to 177 °C,,,
COc1cc(OCc2cccnc2C(F)(F)F)ccc1-c1[nH]c(-c2ccc(Cl)nc2)nc1Cl [Example 243],195 to 199 °C,,,
COc1cc(OCc2ncc(Cl)cc2F)ccc1-c1[nH]c(-c2ccc(F)nc2)nc1Cl [Example 283],172 to 175 °C,,,
COc1cc(OCc2ccc(C(F)(F)F)nc2)ccc1-c1c(Cl)nc(-c2ccc(Cl)nc2)n1C [Example 307],149 to 151 °C,,,
COc1cc(OCc2ccc(C(F)(F)F)nc2)ccc1-c1[nH]c(-c2ccc(F)nc2)nc1F [Example 320],194 to 196 °C,,,
COc1cc(O[C@H](C)c2ccc(C(F)(F)F)nc2)ccc1-c1cnc(-c2ccc(F)nc2)[nH]1 [Example 149],,,,"Solubility (μg/mL) 1st fluid ([1]; 1st fluid for Disintegration Test of Japanese Pharmacopoeia (pH: 1.2), 24 hours): 19.6 µg/mL; Solubility (μg/mL) 2nd fluid [1, 4]: 3.9 µg/mL"
COc1cc(OCc2ccnc(C(F)(F)F)c2)ccc1-c1[nH]c(-c2ccc(F)nc2)nc1Cl [Example 272],236 to 238 °C,,,
COc1cc(-c2cnc(C3CCC(F)(F)C3)[nH]2)ccc1OCc1ccc(C(F)(F)F)cn1 (centres unmarked) [Example 10],,89.5,17.3,
COc1cc(OC(C)c2ncc(C(F)(F)F)cc2F)ccc1-c1cnc(-c2ccc(F)nc2)[nH]1 (centres unmarked) [Example 129],,13.6,< 0.3,
COc1cc(-c2cnc(C3CC(F)(F)C3)[nH]2)ccc1OCc1ccc(C(F)(F)F)cn1 [Example 11],,80.1,5.4,
COc1cc(O[C@@H](C)c2ccc(C(F)(F)F)nc2)ccc1-c1cnc(-c2ccc(F)nc2)[nH]1 [Example 147],,12.4,3.6,
COc1cc(OCc2ccc(Br)cc2F)ccc1-c1cnc(-c2ccc(F)nc2)[nH]1 [Example 144],177 to 180 °C,,,
COc1cc(-c2c[nH]c(-c3ccc(F)nc3)n2)ccc1OCc1ccc(C(F)(F)F)cn1 [Example 125],,23.1,0.5,
COc1cc(OCc2ccc(C(F)(F)F)cn2)ccc1-c1c[nH]c(-c2ccc(C(F)(F)F)nc2)n1 [Example 96],209 to 211 °C,,,
COc1cc(OCc2ccc(C#N)cn2)ccc1-c1c[nH]c(-c2ccc(Cl)nc2)n1 [Example 35],233 to 237 °C (dec.),,,
COc1ccc(-c2nc(-c3ccc(OCc4ccc(C(F)(F)F)cn4)c(OC)c3)c[nH]2)cn1 [Example 70],217 to 218 °C (dec.),,,
COc1cc(O[C@H](C)c2ccc(C(F)(F)F)cc2)ccc1-c1cnc(-c2ccc(F)nc2)[nH]1 [Example 148],,< 0.3,5.3,
COc1cc(OCc2cc(C(F)(F)F)ccn2)ccc1-c1[nH]c(-c2ccc(Cl)nc2)nc1Cl [Example 174],176 to 178 °C,,,
COc1cc(OCc2cnc(Cl)cn2)ccc1-c1nc(-c2ccc(Cl)nc2)[nH]c1Cl [Example 215],232 to 234 °C,,,
COc1cc(-c2cnc(C3CC(F)(F)C3)[nH]2)ccc1OCc1ccc(C(F)(F)F)nc1 [Example 2],,> 88,25.1,

Structure (SMILES),melting point,"solubility at 24 h [1, 2] [µg/mL]","solubility at 24 h [1, 3] [µg/mL]",also measured
COc1cc(OCc2cccc(C(F)(F)F)n2)ccc1-c1[nH]c(-c2ccc(Cl)nc2)nc1Cl [Example 282],190 to 193 °C,,,
COc1cc(OCc2ccc(C(F)(F)F)cn2)ccc1-c1c[nH]c(-c2ccc(SC(C)(C)C)cn2)n1 [Example 59],159 to 160 °C,,,
COc1cc(OCc2ncc(Br)cc2F)ccc1-c1[nH]c(-c2ccc(Cl)nc2)nc1Br [Example 250],174 to 179 °C,,,
COc1cc(O[C@H](C)c2ccc(C(F)(F)F)nc2)ccc1-c1cnc(-c2ccc(F)nc2)[nH]1 [Example 146],,9.9,,"Solubility (μg/mL) 2nd fluid [1, 4]: 1.2 µg/mL"
COc1cc(OCc2cc(C(F)(F)F)ccn2)ccc1-c1[nH]c(-c2ccc(F)nc2)nc1Br [Example 269],179 to 181 °C,,,
COc1cc(-c2c[nH]c(C3CCCCC3)n2)ccc1OCc1ccc(C(F)(F)F)nc1 [Example 51],,90.2,9,
COc1cc(OCc2ccc(C(F)(F)F)cn2)ccc1-c1nc(-c2ccc(F)cn2)[nH]c1Cl [Example 231],222 to 224 °C (dec.),,,
CCOc1ccc(-c2nc(-c3ccc(OCc4ccc(Br)cc4F)cc3OC)c[nH]2)cn1 [Example 84],181 to 184 °C,,,
COc1cc(OCc2ccc(Cl)cc2F)ccc1-c1cnc(-c2ccc(F)nc2)[nH]1 [Example 143],178 to 180 °C,,,
COc1cc(OCc2ccc(Br)cc2F)ccc1-c1c[nH]c(-c2ccccn2)n1 [Example 90],219 to 222 °C,,,
COc1cc(OCc2ccc(Br)cc2F)ccc1-c1[nH]c(-c2ccc(F)nc2)nc1Cl [Example 284],183 to 185 °C,,,
COc1cc(-c2cnc(C3CCCC(F)(F)C3)[nH]2)ccc1OCc1ccc(C(F)(F)F)cn1 (centres unmarked) [Example 5],,90.1,1.1,
COc1cc(-c2c[nH]c(-c3ccc(Cl)nc3)n2)ccc1OCc1ccc(C(F)(F)F)nc1 [Example 52],179 to 181 °C,,,
COc1cc(OC(C)c2ccc(C(F)(F)F)nc2)ccc1-c1cnc(-c2ccc(F)nc2)[nH]1 (centres unmarked) [Example 130],72 to 105 °C,,,
COc1cc(OCc2cnc(Cl)cn2)ccc1-c1nc(-c2ccc(F)nc2)[nH]c1Cl [Example 217],231 to 233 °C (dec.),,,
COc1cc(OCc2ccc(F)cc2F)ccc1-c1cnc(-c2ccc(Cl)nc2)[nH]1 [Example 101],213 to 218 °C,,,
COc1cc(OCc2ccc(Cl)cc2F)ccc1-c1[nH]c(-c2ccc(F)nc2)nc1Cl [Example 286],163 to 166 °C,,,
COc1cc(OCc2ccc(C(F)(F)F)cn2)ccc1-c1cnc(C2CC(F)(F)C2)[nH]1 [Example 9],,87.7,1.8,
COc1cc(OC(C)c2cccc(C(F)(F)F)n2)ccc1-c1cnc(-c2ccc(F)nc2)[nH]1 (centres unmarked) [Example 127],,17.1,< 0.3,
